Experimental data as given in patent US4963588A, “Use of ubenimex for treating myelodysplastic syndrome” (priority 1989, dated 1990).
Like-named read-outs stand apart in the source and are kept apart here.

Legend:
Acute toxicity in beagle = settings: dog, in vivo, male, oral, * = maximum administration level
[1] = background statement; cited from earlier work
aminopeptidase B = settings: cf. U.S.P. No. 4,189,604; cited from earlier work
[2] = in vivo
Acute toxicity in mouse = settings: in vivo, Mouse (ICR)
tumor = settings: cf. Japanese Pat. Publication (A2) No. 9487/1985; cited from earlier work
Acute toxicity in rat = settings: in vivo, Rat (SD)
[3] = tested on: RAEB or RAEB-T patients (MDS); experiment: Oral administration of the ubenimex capsule to RAEB or RAEB-T (MDS) patients, response observed; format: in vivo; parameters: key to Response: CR: complete remission; GR: good result
[4] = Toxicity, general statement; settings: acute toxicity table given for reference
[5] = patient 1 (RAEB-T), 30mg/day oral
[6] = patient 2 (RAEB), 30mg/day oral
[7] = patient 3 (RAEB), 30mg/day oral
[8] = patient 4 (RAEB), 30mg/day oral
[9] = patient 5 (RAEB), 30mg/day oral
[10] = patient 6 (RAEB), 30mg/day oral

## CC(C)C[C@H](NC(=O)[C@@H](O)[C@H](N)Cc1ccccc1)C(=O)O [ubenimex, N-[(2S, 3R)-3-amono-2-hydroxy-4-phenylbutyryl]-(L)-leucine]
Acute toxicity in beagle
  LD50: > 1200 mg/kg
[1]
  Toxicity: low toxicity
Aminopeptidase B
  Inhibition of aminopeptidase B: inhibits aminopeptidase B
[2]
  Accumulated toxicity upon repeated administration: low accumulated toxicity
Acute toxicity in mouse; ip, female, intraperitoneal
  LD50: 190 mg/kg
Acute toxicity in mouse; ip, male, intraperitoneal
  LD50: 190 mg/kg
Acute toxicity in mouse; po, female, * = maximum administration level
  LD50: > 4000 mg/kg
Acute toxicity in mouse; po, male, * = maximum administration level
  LD50: > 4000 mg/kg
Acute toxicity in mouse; sc, female, subcutaneous
  LD50: 1900 mg/kg
Acute toxicity in mouse; sc, male, subcutaneous
  LD50: 1300 mg/kg
tumor
  Antitumor activities: has a antitumor activities
Acute toxicity in rat; ip, first line, sex female, intraperitoneal
  LD50: 900 mg/kg
Acute toxicity in rat; ip, second line, female, intraperitoneal
  LD50: 780 mg/kg
Acute toxicity in rat; po, first line, sex female, * = maximum administration level
  LD50: > 2000 mg/kg
Acute toxicity in rat; po, second line, female, * = maximum administration level
  LD50: > 2000 mg/kg
Acute toxicity in rat; sc, first line, sex female, subcutaneous
  LD50: 1900 mg/kg
Acute toxicity in rat; sc, second line, female, subcutaneous
  LD50: 2100 mg/kg
[3]; 30mg/day oral
  Effectiveness as a remedy for MDS: highly effective
[3]; among six effective cases
  RAEB cases with complete remission: three
  RAEB cases with good responses: two
  RAEB-T cases with complete remission: one
[3]; anemia, thrombocytopenia and neutropenia
  Effect on cytopenia: improve cytopenia
[3]; human, in vivo
  Amount of transfusion to the patients: reduced or sometimes become unnecessary
  Effect on excess blast: reduce excess blast
  Effect on myelodysplasia: improve myelodysplasia
[3]; of seven RAEB or RAEB-T patients, 30mg/day oral
  Patients with good results: six
[3]; [5]
  Days till response: 34 days
  Response: CR
[3]; patient 1 (RAEB-T), 30mg/day oral, after treatment (BT 1.11)
  Peripheral blood Granulocytes No.: 2.94e+09 L⁻¹
[3]; patient 1 (RAEB-T), 30mg/day oral, after treatment (BT 10.5)
  Peripheral blood Hemoglobin: 13.6 g/dL
[3]; patient 1 (RAEB-T), 30mg/day oral, after treatment (BT 22.8)
  Bone marrow Blast: 3.2%
[3]; patient 1 (RAEB-T), 30mg/day oral, after treatment (BT 350)
  Peripheral blood Platelets: 3.72e+11 L⁻¹
[3]; patient 1 (RAEB-T), 30mg/day oral, observation continued
  Duration of response: 8 week
[3]; [6]
  Days till response: 28 days
  Response: CR
[3]; patient 2 (RAEB), 30mg/day oral, after treatment (BT 0.62)
  Peripheral blood Granulocytes No.: 2.44e+09 L⁻¹
[3]; patient 2 (RAEB), 30mg/day oral, after treatment (BT 7.9)
  Peripheral blood Hemoglobin: 14.4 g/dL
[3]; patient 2 (RAEB), 30mg/day oral, after treatment (BT 13.2)
  Bone marrow Blast: 5.2%
[3]; patient 2 (RAEB), 30mg/day oral, after treatment (BT 81)
  Peripheral blood Platelets: 2.09e+11 L⁻¹
[3]; patient 2 (RAEB), 30mg/day oral, ubenimex administration suspended
  Duration of response: 11 week
[3]; [7]
  Days till response: 97 days
  Response: CR
[3]; patient 3 (RAEB), 30mg/day oral, after treatment (BT 0.99)
  Peripheral blood Granulocytes No.: 1.75e+09 L⁻¹
[3]; patient 3 (RAEB), 30mg/day oral, after treatment (BT 5.2)
  Bone marrow Blast: 0.4%
[3]; patient 3 (RAEB), 30mg/day oral, after treatment (BT 6.8)
  Peripheral blood Hemoglobin: 12.3 g/dL
[3]; patient 3 (RAEB), 30mg/day oral, after treatment (BT 12)
  Peripheral blood Platelets: 9.6e+10 L⁻¹
[3]; patient 3 (RAEB), 30mg/day oral, observation continued
  Duration of response: 21 week
[3]; [8]
  Days till response: 175 days
  Response: CR
[3]; patient 4 (RAEB), 30mg/day oral, after treatment (BT 2.92)
  Peripheral blood Granulocytes No.: 2.35e+09 L⁻¹
[3]; patient 4 (RAEB), 30mg/day oral, after treatment (BT 6.0)
  Bone marrow Blast: 2.0%
[3]; patient 4 (RAEB), 30mg/day oral, after treatment (BT 7.6)
  Peripheral blood Hemoglobin: 11.0 g/dL
[3]; patient 4 (RAEB), 30mg/day oral, after treatment (BT 30)
  Peripheral blood Platelets: 8.2e+10 L⁻¹
[3]; patient 4 (RAEB), 30mg/day oral, observation continued
  Duration of response: 28 week
[3]; [9]
  Days till response: 134 days
  Response: GR
[3]; patient 5 (RAEB), 30mg/day oral, after treatment (BT 1.22)
  Peripheral blood Granulocytes No.: 2.44e+09 L⁻¹
[3]; patient 5 (RAEB), 30mg/day oral, after treatment (BT 8.5)
  Peripheral blood Hemoglobin: 8.7 g/dL
[3]; patient 5 (RAEB), 30mg/day oral, after treatment (BT 21)
  Peripheral blood Platelets: 1.76e+11 L⁻¹
[3]; patient 5 (RAEB), 30mg/day oral, observation continued
  Duration of response: 32 week
[3]; [10]
  Days till response: 67 days
  Response: GR
[3]; patient 6 (RAEB), 30mg/day oral, after treatment (BT 1.45)
  Peripheral blood Granulocytes No.: 2.02e+09 L⁻¹
[3]; patient 6 (RAEB), 30mg/day oral, after treatment (BT 10.9)
  Peripheral blood Hemoglobin: 12.2 g/dL
[3]; patient 6 (RAEB), 30mg/day oral, after treatment (BT 42)
  Peripheral blood Platelets: 1.86e+11 L⁻¹
[3]; patient 6 (RAEB), 30mg/day oral, observation continued
  Duration of response: 20 week
[4]
  Toxicity: low toxicity
